The text below walks through data of patent US8129557B2, “Phosphonic acid diester derivative and method for producing thereof” (priority 2005, dated 2012).

The target in one series is T1, human GGT (Homo sapiens, UniProt P19440).
T1 construct: purchased Asahi Kasei Co., Ltd. HC-GTP (lot 603AA)
Kind of series: Second-order rate constant kon of human GGT inactivation (continuous or discontinuous assay). The class given is biochemical. To be noted: for kon Human GGT: second-order rate constant for enzyme inactivation, pH 5.5, 25° C. The source says: (§1) Purified enzyme of E-coli GGT and crude enzyme of human GGT were employed as GGT samples for an inhibition experiment. The enzyme whose physicochemical properties are described in the Document (Hideyuki Suzuki, Hidehiko Kumagai, Tatsurokukro Tochikura “gamma-Glutamyltranspeptidase from Escherichia coli K-12: Purification and Properties” Journal of Bacteriology, December 1986, Vol. 168, No. 3, p. 1325-1331) was used as a purified enzyme of E-coli GGT. Enzyme [HC-GTP (product number), 603AA (lot number)] manufactured by Asahi Kasei Co., Ltd. was used as a crude enzyme of human GGT. The crude enzyme of human GGT contained a large amount of bovine serum albumin (BSA) to stabilize the enzyme, and the GGT concentration was 1% or lower.
In the hydrolytic assay of human GGT, the measurement was carried out in the same manner as that in the hydrolytic assay of E-coli GGT, except that the substrate concentration was changed to […] and therefore, the explanation of the common portions was omitted.
(§2) Next, a second-order rate constant for enzyme inactivation kon was measured by either a continuous assay or a discontinuous assay. Both of the continuous and discontinuous assay for measuring inhibitory activity to GGT were carried out under a pseudo-first-order reaction condition.
(§3) In the continuous assay, while the temperature was kept at 25° C., the 100 mM succinic acid-sodium hydroxide buffer solutions (pH 5.5) containing an inhibitor in various concentrations and the substrate were preincubated for equilibrium. Herein, 0.2 μM of the substrate was used for the case of E-coli GGT and 0.4 μM of the substrate was used for the case of human GGT. Thereafter, the enzyme solution of the E-coli GGT was added in a manner that the final concentration became 0.04 nM and also the human GGT crude enzyme solution was added in a manner that the final concentration became 5 μg/mL. Accordingly, the reaction was started and the release of AMC (increase of the fluorescence intensity) was continuously traced for 10 minutes.
(§4) The fluorescence intensity data obtained from the respective curves was applied to the following pseudo-first-order rate equation (2) and the observed pseudo-first-order rate constant for enzyme inactivation (kobs) was calculated by nonlinear regression analysis [Stein, R. L. et al. Biochemistry 26, 2682-2689 (1987)].
(§5) [Equation 2] [P]=[P]∞[1−exp(−kobst)] (2)
(§6) When the kobs was plotted against to the inhibitor concentration ([I]), a linear relation was obtained until the maximum extent of the experimentally possible inhibitor concentration. Therefore, the second-order rate constant for enzyme inactivation kon was calculated using the following equation (3) deduced from the kinetic mechanism.
(§7) [drawing 37] [Equation 3] kobs=kon[I]/(1+[S]/Km) (3)
(§8) Herein, S denotes 7-(γ-L-glutamylamino)-4-methylcoumarin. The substrate concentration [S] for E-coli GGT is 0.2 μM and the Km value is 0.2 μM. […] The kinetic data was obtained by nonlinear regression analysis using Kaleida graph, a program produced by Synergy Software.
Further, in the discontinuous assay, an inhibitor in various concentrations was dissolved in 100 mM succinic acid-sodium hydroxide buffer solution (pH 5.5) and the enzyme solution was added to the resulting buffer solutions. Herein, in the case of E-coli GGT, the enzyme solution was added in a manner that the final concentration became 0.4 nM and also the human GGT crude enzyme solution was added in a manner that the final concentration became 0.5 mg/mL. Accordingly, the reaction of the inhibitor and each GGT was conducted at 25° C. An aliquot (10 μL) of each of the reaction solutions were sampled at every specified time to measure the remaining enzyme activity by the above-mentioned enzyme activation method. The remaining enzyme activity at every time was analyzed by nonlinear regression using the pseudo-first-order rate equation (4) of enzyme inactivation to calculate the value of kobs.
[Equation 4] αt/α0=exp(−kobst) (4) […]

The nature of series [1]: Chemical stability: hydrolysis ratio after storage in water at room temperature. The class given is physicochemical. To be noted: stored in water at room temperature for 12 hours. The procedure:
Herein, the hydrolysis ratios of the reactive compounds of Examples 1 to 11 were measured after the respective compounds were stored in water at room temperature. In this connection, the compounds other than the compound of Example 10 were stored in water for 12 hours and the compound of Example 10 was stored in water for 112 hours.

The target in a further series is T2, E-coli GGT (Escherichia coli, UniProt P18956).
T2 construct: was used as a purified enzyme of E-coli GGT; made in house
T2 sequence (P18956 26-390 limits assumed): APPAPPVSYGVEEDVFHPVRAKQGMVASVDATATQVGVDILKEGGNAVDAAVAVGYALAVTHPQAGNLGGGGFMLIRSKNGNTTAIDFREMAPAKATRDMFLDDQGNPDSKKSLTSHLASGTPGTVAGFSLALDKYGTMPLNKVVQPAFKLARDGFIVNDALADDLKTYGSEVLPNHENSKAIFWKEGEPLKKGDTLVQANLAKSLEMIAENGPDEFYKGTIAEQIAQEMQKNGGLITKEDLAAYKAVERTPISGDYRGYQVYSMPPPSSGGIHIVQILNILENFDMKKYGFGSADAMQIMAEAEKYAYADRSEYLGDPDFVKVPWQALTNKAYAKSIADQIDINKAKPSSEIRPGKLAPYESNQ
T2 sequence (P18956 391-580 limits assumed): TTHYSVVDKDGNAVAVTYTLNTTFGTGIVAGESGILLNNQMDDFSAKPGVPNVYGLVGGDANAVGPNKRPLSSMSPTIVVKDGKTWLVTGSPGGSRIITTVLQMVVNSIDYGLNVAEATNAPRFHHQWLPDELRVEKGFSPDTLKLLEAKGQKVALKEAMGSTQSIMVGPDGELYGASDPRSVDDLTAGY
Kind of series: Second-order rate constant kon of E-coli GGT inactivation (continuous or discontinuous assay). The class given is biochemical, Escherichia coli K-12. The settings on record: second-order rate constant for enzyme inactivation; pH 5.5, 25° C.
Description: as §1
In the hydrolytic assay of E. coli GGT, 10 μL of a […] enzyme solution was added to a 100 mM succinic acid-sodium hydroxide buffer solution (pH 5.5) in a total volume of 1 mL containing 100 μL of 2 μM substrate aqueous solution. The product, 7-amino-4-methylcoumarin (AMC), released along with the enzyme reaction was traced continuously at 25° C. using a fluorospectrophotometer F-2000 manufactured by Hitachi Ltd. (excitation wavelength: 350 nm, emission wavelength: 440 nm). The AMC concentration was separately measured by forming a calibration curve showing the relation of the fluorescence intensity (F) and the concentration (C) using standard solutions and was calculated from the relational expression (1) of the fluorescence intensity alteration (ΔF) and concentration alteration (ΔC).
as §2, §3, §4, §5, §6, §7, §8
Further, in the discontinuous assay, an inhibitor in various concentrations was dissolved in 100 mM succinic acid-sodium hydroxide buffer solution (pH 5.5) and the enzyme solution was added to the resulting buffer solutions. […]

The subject of series [2] is glutamine-dependent asparagine synthetase. Put plainly: Inhibition of glutamine-dependent asparagine synthetase. The class given is biochemical. To be noted: 10 mM compound, incubated for 2 hours. The source says:
Therefore, the phosphonic acid diester derivative (1) specifically reacts on GGT.

A short description of series [3]: Hydrolysis ratio of Example 7 in alkaline, neutral or acidic solvent. The class given is physicochemical. To be noted: for Hydrolysis ratio (%): after 12 hours. The procedure: Herein, the compound of Example 7 was dissolved in a solvent shown in Table 4 and kept at 23.5° C., and the hydrolysis ratio of the compound of Example 7 was measured after 12 hours.

T1 sequence (P19440 1-380 limits assumed): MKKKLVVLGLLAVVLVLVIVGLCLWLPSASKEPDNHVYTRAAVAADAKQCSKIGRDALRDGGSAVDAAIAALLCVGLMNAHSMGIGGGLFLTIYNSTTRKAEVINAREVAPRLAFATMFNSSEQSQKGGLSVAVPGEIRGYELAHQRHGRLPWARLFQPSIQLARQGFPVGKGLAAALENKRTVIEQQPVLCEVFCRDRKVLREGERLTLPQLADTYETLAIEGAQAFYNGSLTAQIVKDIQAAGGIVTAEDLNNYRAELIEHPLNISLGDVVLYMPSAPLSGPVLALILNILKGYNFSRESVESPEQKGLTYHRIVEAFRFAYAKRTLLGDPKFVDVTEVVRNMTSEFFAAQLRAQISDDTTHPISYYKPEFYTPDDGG
T1 sequence (P19440 381-569 limits assumed): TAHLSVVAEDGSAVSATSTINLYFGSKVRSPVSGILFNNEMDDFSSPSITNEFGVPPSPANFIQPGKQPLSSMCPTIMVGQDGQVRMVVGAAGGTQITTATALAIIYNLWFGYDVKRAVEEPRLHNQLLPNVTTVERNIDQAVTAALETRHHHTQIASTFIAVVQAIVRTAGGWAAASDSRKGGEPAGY

Turning to `COP(=O)(CCC(N)C(=O)O)Oc1cccc(CC(=O)O)c1` (stereo not drawn) [Example 11, 2-amino-4-{[3-(carboxymethyl)phenyl](methyl)phosphono}butanoic Acid], the “plot of log kon (human GGT) against pKa of aryl group, FIG. 4” value on human GGT (position relative to the straight line) is listed as “deviate upward”. For the same molecule, on human GGT (ratio of kon 51 to kon 0.33), the “kon of human GGT inactivation relative to the compound of Example 12” value is given as “about 155 times”. Also, at human GGT, the “kon Human GGT” value is reported as 51 M^−1S^−1. Further, the “Hydrolysis ratio (%)” value in series [1] is 0%. For the same molecule, the “kon E-coli GGT” value at E-coli GGT was 150 M^−1S^−1. Besides, the “inhibition of the function of glutamine-dependent asparagine synthetase” value in series [2] is listed as “did not inhibit”.

Consider `COP(=O)(CCC(N)C(=O)O)Oc1ccc([N+](=O)[O-])cc1` (stereo not drawn) [Example 7, 2-amino-4-[methyl(4-nitrophenyl)phosphono]butanoic Acid], for which the “kon Human GGT” value on human GGT was found to be 125.1 M^−1S^−1. Also, the “Hydrolysis ratio (%)” value in series [1] is 48.6%; in series [3] (0.1 N CF3COOD, pH <1, 23.5° C.), 0%; in series [3] (0.1 N CH3COOD, pH 2.9, 23.5° C.) it was 40%; in series [3] (0.1 N DCl + MeOH, pH <1, 23.5° C.), 0%; in series [3] (0.1 N DCl, pH <1, 23.5° C.), 0%; in series [3] (0.1 N Na2CO3, pH 11.6, 23.5° C.), 100%. Besides, the “Hydrolysis ratio (%)” value is listed as 100% in series [3] (0.1 N NaHCO3, pH 8.3, 23.5° C.) and 49% in series [3] (D2O, pH 7, 23.5° C.). The “kon E-coli GGT” value at E-coli GGT amounted to 35000 M^−1S^−1. Moreover, the “hydrolysis ratio in words” value in series [3] (under the acidic condition) is given as “low”; in series [3] (under the alkaline condition), “high”.
